Assay [1] deals with T1, follicle-stimulating hormone (FSH) receptor (Rattus norvegicus, UniProt P20395).
T1 construct: endogenous in cells; host or cells: rat granulosa cells
T1 sequence (P20395 18-692): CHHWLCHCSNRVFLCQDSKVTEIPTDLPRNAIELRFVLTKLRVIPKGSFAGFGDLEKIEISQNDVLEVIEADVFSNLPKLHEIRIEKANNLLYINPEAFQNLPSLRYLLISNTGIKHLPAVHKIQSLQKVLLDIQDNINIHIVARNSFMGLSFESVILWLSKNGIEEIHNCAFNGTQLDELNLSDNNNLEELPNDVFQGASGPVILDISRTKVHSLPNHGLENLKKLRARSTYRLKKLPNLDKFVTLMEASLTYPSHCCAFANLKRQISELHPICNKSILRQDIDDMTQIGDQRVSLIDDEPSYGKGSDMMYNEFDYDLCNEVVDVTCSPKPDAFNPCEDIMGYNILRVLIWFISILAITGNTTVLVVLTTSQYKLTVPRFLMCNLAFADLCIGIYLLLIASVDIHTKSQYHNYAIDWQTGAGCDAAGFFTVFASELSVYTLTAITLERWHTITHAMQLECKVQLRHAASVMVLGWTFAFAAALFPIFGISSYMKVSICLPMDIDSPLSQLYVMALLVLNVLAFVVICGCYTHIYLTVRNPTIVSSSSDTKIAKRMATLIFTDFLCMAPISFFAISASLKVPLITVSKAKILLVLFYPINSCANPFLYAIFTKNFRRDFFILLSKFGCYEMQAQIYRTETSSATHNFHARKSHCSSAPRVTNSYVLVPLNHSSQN
Nature of the assay: Rat granulosa EC50 FSH (Assay B). The assay is classed as cell-based. As to the method: Example 25. Rat granulosa EC50 FSH (Assay B)
The assay was performed pursuant to the teaching of Yanofsky et al. (2006) Allosteric activation of the follicle-stimulating hormone (FSH) receptor by selective, nonpeptide agonists (JBC 281(19): 13226-13233, which is incorporated by reference in the disclosure of the invention).

The next assay has as its target T2, FSHR (Homo sapiens, UniProt P23945).
T2 construct: expressed in transfected cells; host or cells: CHO (Cho-FSHR-LUC-1-1-43)
T2 sequence (P23945 18-695): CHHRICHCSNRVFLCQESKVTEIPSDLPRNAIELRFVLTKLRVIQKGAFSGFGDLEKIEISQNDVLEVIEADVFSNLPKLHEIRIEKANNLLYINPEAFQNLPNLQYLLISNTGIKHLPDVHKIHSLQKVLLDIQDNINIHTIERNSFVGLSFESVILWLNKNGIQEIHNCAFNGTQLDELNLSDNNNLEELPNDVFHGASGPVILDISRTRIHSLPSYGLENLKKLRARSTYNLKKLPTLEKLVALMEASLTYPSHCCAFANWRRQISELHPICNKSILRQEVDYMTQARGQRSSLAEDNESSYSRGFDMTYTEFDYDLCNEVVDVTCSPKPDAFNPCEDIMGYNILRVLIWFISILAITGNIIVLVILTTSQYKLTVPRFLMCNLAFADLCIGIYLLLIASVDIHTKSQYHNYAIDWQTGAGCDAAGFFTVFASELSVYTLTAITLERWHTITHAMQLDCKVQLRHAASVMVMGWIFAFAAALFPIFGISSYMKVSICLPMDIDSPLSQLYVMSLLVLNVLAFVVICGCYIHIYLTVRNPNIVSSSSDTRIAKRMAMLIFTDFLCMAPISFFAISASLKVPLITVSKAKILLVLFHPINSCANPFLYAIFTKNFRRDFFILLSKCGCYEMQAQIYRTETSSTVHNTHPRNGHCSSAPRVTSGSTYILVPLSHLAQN
Nature of the assay: EC50 of cyclic AMP production in CHO FSHR cells + EC20 FSH (Assay A). As to conditions: cyclic AMP production in CHO FSHR cells + EC20 FSH (0.265 pM), HTRF. The assay is classed as cell-based. In short, it runs like this: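 CHO cells expressing FSHR, stimulated 1 h at 37° C with compound plus EC20 FSH (0.265 pM final) and 200 μM IBMX. cAMP measured by HTRF (665/620 nm ratio) after 1 h at room temperature; effect expressed relative to maximum response of FSH standard.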

For orientation: EC50 means the midpoint of the concentration-response curve.

Structures are written as SMILES. Some results are limits rather than exact numbers.

`COC(=O)[C@H]1C[C@@H]1c1cc2c(cc1OC)OCc1c(C(=O)N(C)C(C)(C)C)nn(-c3cc(F)cc(F)c3)c1-2` (racemic) [Compound 206]: the EC50 was 101 to 500 nM in assay [1] and below 10 nM on FSHR.

As for `COCC1(CC(C)C)CCCN1C(=O)c1nn(-c2ccsc2)c2c1COc1cc(OC)c(-c3ccn(C)n3)cc1-2` (stereo not drawn) [Compound 127, (2-isobutyl-2-(methoxymethyl)pyrrolidin-1-yl)(7-methoxy-8-(1-methyl-1H-pyrazol-3-yl)-1-(thiophen-3-yl)-1,4-dihydrochromeno[4,3-c]pyrazole-3-yl)methanone], the results for the EC50 (in assay [1]; at FSHR) were 101 to 500 nM and 10 to 100 nM, respectively.

For the molecule `COc1cc(OC)cc(-n2nc(C(=O)N3CCOCC3(C)C)c3c2-c2cc(-c4cccnc4F)c(OC)cc2OC3)c1` [Compound 42, (1-(3,5-dimethoxyphenyl)-8-(2-fluoropyridin-3-yl)-7-methoxy-1,4-dihydrochromeno[4,3-c]pyrazol-3-yl)(3,3-dimethylmorpholino)methanone], the EC50 in assay [1] was 10 to 100 nM; at FSHR, below 10 nM.

For `COc1cc(F)cc(-n2nc(C(=O)N(C)C(C)(C)C)c3c2-c2cc(-c4ccn(C)n4)c(OC)cc2OC3)c1` [Compound 52, N-tert-butyl-1-(3-fluoro-5-methoxyphenyl)-7-methoxy-N-methyl-8-(1-methyl-1H-pyrazol-3-yl)-1,4-dihydrochromeno[4,3-c]pyrazole-3-carboxamide], the values for the EC50 (in assay [1]; at FSHR) were 101 to 500 nM and 10 to 100 nM, respectively.

With `COc1cc2c(cc1-c1cncc(C(N)=O)c1)-c1c(c(C(=O)N(C)C(C)(C)C)nn1-c1cc(F)cc(F)c1)CO2` [Compound 161], the concentration for a half-maximal effect (EC50) is 10 to 100 nM in assay [1] and below 10 nM on FSHR.

In the case of `COc1cc2c(cc1-c1cncc(S(N)(=O)=O)c1)-c1c(c(C(=O)N(C)C(C)(C)C)nn1-c1cc(Cl)cc(Cl)c1)CO2` [Compound 66, N-tert-butyl-1-(3,5-dichlorophenyl)-7-methoxy-N-methyl-8-(5-sulfamoylpyridin-3-yl)-1,4-dihydrochromeno[4,3-c]pyrazole-3-carboxamide], the EC50 in assay [1] is 10 to 100 nM; at FSHR, below 10 nM.

`COc1cc2c(cc1-c1cccnc1Cl)-c1c(c(C(=O)N(C)C(C)(C)C)nn1-c1ccsc1)CO2` [Compound 60, N-tert-butyl-8-(2-chloropyridin-3-yl)-7-methoxy-N-methyl-1-(thiophen-3-yl)-1,4-dihydrochromeno[4,3-c]pyrazole-3-carboxamide]: the EC50 is 101 to 500 nM in assay [1] and below 10 nM on FSHR.

Turning to `COc1cc2c(cc1-c1cnn(CC(=O)O)c1)-c1c(c(C(=O)N(C)C(C)(C)C)nn1-c1cc(Cl)cc(Cl)c1)CO2` [Compound 81, 2-(4-(3-(tert-butyl(methyl)carbamoyl)-1-(3,5-dichlorophenyl)-7-methoxy-1,4-dihydrochromeno[4,3-c]pyrazol-8-yl)-1H-pyrazol-1-yl)acetic acid], the EC50 lay within 101 to 500 nM in assay [1] and 10 to 100 nM at FSHR.

Regarding `COc1cc2c(cc1-c1cncc(C(N)=O)c1)-c1c(c(C(=O)N(C)C(C)(C)C)nn1-c1cc(Cl)cc(Cl)c1)CO2` [Compound 171], the EC50 (in assay [1]; at FSHR) was below 10 nM in each case.

For `COc1cc2c(cc1-c1cnn(CC(N)=O)c1)-c1c(c(C(=O)N(C)C(C)(C)C)nn1-c1cc(Cl)cc(Cl)c1)CO2` [Compound 67, 8-(1-(2-amino-2-oxoethyl)-1H-pyrazol-4-yl)-N-tert-butyl-1-(3,5-dichlorophenyl)-7-methoxy-N-methyl-1,4-dihydrochromeno[4,3-c]pyrazole-3-carboxamide], the results for the EC50 (in assay [1]; on FSHR) were 101 to 500 nM and below 10 nM, respectively.

As for `COc1cc(OC)cc(-n2nc(C(=O)N(C)C(C)(C)CCO)c3c2-c2cc(-c4cccnc4F)c(OC)cc2OC3)c1` [Compound 135, 1-(3,5-dimethoxyphenyl)-8-(2-fluoropyridin-3-yl)-N-(4-hydroxy-2-methylbutan-2-yl)-7-methoxy-N-methyl-1,4-dihydrochromeno[4,3-c]pyrazole-3-carboxamide], the results for the EC50 (in assay [1]; at FSHR) were 10 to 100 nM and below 10 nM, respectively.

As for `COc1cc2c(cc1-c1ccccn1)-c1c(c(C(=O)N3CCC(O)CC3(C)C)nn1-c1cc(Cl)cc(Cl)c1)CO2` (stereo not drawn) [Compound 102, (1-(3,5-dichlorophenyl)-7-methoxy-8-(pyridin-2-yl)-1,4-dihydrochromeno[4,3-c]pyrazol-3-yl)(4-hydroxy-2,2-dimethylpiperidin-1-yl)methanone], the values for the EC50 (in assay [1]; at FSHR) were 10 to 100 nM and below 10 nM, respectively.

With `COc1cc2c(cc1-c1ccn(C)n1)-c1c(c(C(=O)N(C)C(C)(C)C#N)nn1-c1cc(F)cc(F)c1)CO2` [Compound 106, N-(2-cyanopropan-2-yl)-1-(3,5-difluorophenyl)-7-methoxy-N-methyl-8-(1-methyl-1H-pyrazol-3-yl)-1,4-dihydrochromeno[4,3-c]pyrazole-3-carboxamide], the EC50 in assay [1] is above 500 nM; at FSHR it was 10 to 100 nM.

Turning to `COc1cc2c(cc1-c1cnn(CC(=O)N(C)C)c1)-c1c(c(C(=O)N(C)C(C)(C)C)nn1-c1cc(Cl)cc(Cl)c1)CO2` [Compound 90, N-tert-butyl-1-(3,5-dichlorophenyl)-8-(1-(2-(dimethylamino)-2-oxoethyl)-1H-pyrazol-4-yl)-7-methoxy-N-methyl-1,4-dihydrochromeno[4,3-c]pyrazole-3-carboxamide], the EC50 is 101 to 500 nM in assay [1] and below 10 nM at FSHR.

Regarding `[2H]C([2H])([2H])Oc1cc(Cl)cc(-n2nc(C(=O)N(C)C(C)(C)C)c3c2-c2cc(-c4cncc(C#N)c4)c(OC([2H])([2H])[2H])cc2OC3)c1` [Compound 36, N-tert-butyl-1-(3-chloro-5-D3-methoxyphenyl)-8-(5-cyanopyridin-3-yl)-7-D3-methoxy-N-methyl-1H,4H-chromeno[4,3-c]pyrazole-3-carboxamide], the EC50 in assay [1] is 10 to 100 nM; on FSHR it was below 10 nM.

On to `COc1cc2c(cc1-c1cncc(N)c1)-c1c(c(C(=O)N(C)C(C)(C)C)nn1-c1cc(Cl)cc(Cl)c1)CO2` [Compound 20, 8-(5-aminopyridin-3-yl)-N-tert-butyl-1-(3,5-dichlorophenyl)-7-methoxy-N-methyl-1,4-dihydrochromeno[4,3-c]pyrazole-3-carboxamide], for which the EC50 in assay [1] is 101 to 500 nM; at FSHR it was below 10 nM.

On to `COc1cc2c(cc1-c1cc(Cl)cc(C(N)=O)c1)-c1c(c(C(=O)N(C)C(C)(C)C)nn1-c1cc(F)cc(F)c1)CO2` [Compound 165], for which the EC50 in assay [1] is 10 to 100 nM; at FSHR it was below 10 nM.

As to `COc1cc2c(cc1-c1cncc(C(N)=O)c1)-c1c(c(C(=O)N(C)C(C)(C)C)nn1-c1ccsc1)CO2` [Compound 167], the EC50 in assay [1] was 10 to 100 nM; at FSHR, below 10 nM.

For `COc1cc2c(cc1-c1cncc(C#N)c1)-c1c(c(C(=O)N3CC[S+]([O-])CC3(C)C)nn1-c1cc(F)cc(F)c1)CO2` (stereo not drawn) [Compound 49], the figures for the EC50 (in assay [1]; on FSHR) were 10 to 100 nM and below 10 nM, respectively.

Consider `COc1cc2c(cc1-c1cc(=O)[nH]n1C)-c1c(c(C(=O)N(C)C(C)(C)C)nn1-c1ccsc1)CO2` [Compound 187], for which the EC50 in assay [1] was 101 to 500 nM; at FSHR it was below 10 nM.

In the case of `COc1cc2c(cc1-c1nn(C)cc1C#N)-c1c(c(C(=O)N3CCOCC3(C)C)nn1-c1cc(F)cc(F)c1)CO2` [Compound 150], the results for the EC50 (in assay [1]; on FSHR) were 10 to 100 nM and below 10 nM, respectively.

The record behind these values is patent US10941152B2, “Pyrazole compounds as modulators of FSHR and uses thereof” (TOCOPHERX, INC., priority 2014, dated 2021).
